In publication PMC11324046, “Second-generation piperazine derivatives as promising radiation countermeasures” (RSC Medicinal Chemistry, 2024):
Like-named read-outs stand apart in the source and are kept apart here.

Legend:
[1] = WST-1 proliferation assay, Jurkat; format: cell-based; conditions: human, Jurkat cells (acute T-cell leukemia), vs 0.1% DMSO control = 100%, mean ± standard deviation
Procedure: (§1) A thorough analysis of antiproliferative activity was performed across various cell culture types representing different histotypes: leukemia (Jurkat, MOLT-4), lung adenocarcinoma (A549), colorectal adenocarcinoma (HT-29), pancreatic carcinoma (PANC-1), breast adenocarcinoma (MCF-7), osteosarcoma (SAOS-2), and one non-cancerous cell line (fetal lung fibroblasts MRC-5). The cell lines were exposed to the newly synthesized compounds at a concentration of 100 μM for 48 h in a single-dose treatment. Changes in cell proliferation compared to the vehicle 0.1% dimethyl sulfoxide (DMSO) control were determined using the WST-1 assay, which is based on mitochondrial dehydrogenase metabolic activities. […] The overall cytotoxic activity of each compound was expressed as growth percent (GP) – the mean of the proliferation of all cell lines treated with the same compound.
(§2) Selected human tumor and non-tumor cell lines Jurkat (acute T-cell leukemia), MOLT-4 (acute lymphoblastic leukemia), A549 (lung carcinoma), HT-29 (colorectal adenocarcinoma), PANC-1 (pancreas epithelioid carcinoma), MCF-7 (breast adenocarcinoma), SAOS-2 (osteosarcoma) and MRC-5 (normal lung fibroblasts) were purchased from either American Type Culture Collection (ATCC; VA, USA) or Sigma-Aldrich (St. Louis, MO, USA) and cultured according to the provider's culture method guidelines. All cell lines were maintained at 37 °C in a humidified 5% carbon dioxide and 95% air incubator. Cells in the maximum range of either 10 passages for the adherent cell lines (A549, HT-29, PANC-1, MCF-7, SAOS-2, and MRC-5), or 20 passages for suspension cell lines (Jurkat, MOLT-4,) and in an exponential growth phase were used for this study. Screening of the antiproliferative effect and growth percent calculation were conducted as follows: each cell line was seeded at previously established optimal density (1–50 × 10^3 cells per well) in a 96-well plate (TPP, Trasadingen, Switzerland) and cells were allowed to settle overnight. Cells were treated for 48 h with compounds at a final concentration of 100 μM. At the end of the cultivation period, the WST-1 proliferation assay (Roche, Basel, Switzerland) was performed according to the manufacturer's protocol. The absorbance was measured at 440 nm using a Tecan Spark multimode microplate reader (Tecan, Mannedorf, Switzerland). Each value is the mean of three independent experiments and represents the percentage of proliferation (100% cell proliferation for 0.1% DMSO mock-treated control cells). The GP value was calculated for each compound tested. GP represents the mean of the percentage proliferation decrease of all cell lines treated with the same compound.

[2] = WST-1 proliferation assay, MCF-7; format: cell-based; conditions: human, MCF-7 cells (breast adenocarcinoma), vs 0.1% DMSO control = 100%, mean ± standard deviation
Procedure: as §1, §2

MOLT-4 cells = test: Annexin V/PI flow cytometry viability of irradiated MOLT-4 cells; format: cell-based, human; conditions: 2 Gy; for viability at 100 µM / viability at 200 µM: Homo sapiens, 2 h pretreatment, 24 h
Procedure: Consequently, we investigated whether the pre-application of these substances can augment the survival of MOLT-4 cells after irradiation exposure. The radioprotective investigation utilized a leukemia MOLT-4 cell model of hematopoietic origin with flow cytometric quantification of cell viability via annexin V/propidium iodide staining.
In the following step, at 24 h after irradiation, MOLT-4 cell viability and cell death were determined by flow cytometry using an Alexa Fluor® 488 annexin V/Dead Cell Apoptosis kit (Life Technologies, Grand Island, NY, USA) following the manufacturer's instructions. The Alexa Fluor®488 annexin V/Dead Cell Apoptosis kit employs the property of Alexa Fluor®488 conjugated to annexin V to bind to phosphatidylserine in the presence of Ca^2+; and the ability of propidium iodide to enter cells with damaged cell membranes and bind to DNA. For each sample, a minimum of 20 000 events were acquired using a CytoFLEX LX flow cytometer (Beckman Coulter, Miami, FL, USA). List mode data were analyzed using Kaluza Analysis 2.1 software (Beckman Coulter, Miami, FL, USA).

[3] = WST-1 proliferation assay, A549; format: cell-based; conditions: human, A549 cells (lung carcinoma), vs 0.1% DMSO control = 100%, mean ± standard deviation
Procedure: as §1, §2

in vitro = conditions: male, human
Procedure: (§3) To represent the overall inhibitory activity of each compound, viability was calculated as the mean of at least three independent measurements. The purpose was to determine the optimal non-toxic concentration for subsequent use in radioprotection tests.
(§4) Whole blood from a healthy donor was diluted 1 : 1 with Dulbecco's phosphate buffered saline (Sigma-Aldrich, St. Louis, MO, USA). The diluted blood was slowly and carefully pipetted onto an equal volume of Histopaque®-1077 (Sigma-Aldrich, St. Louis, MO, USA). The entire process was carried out at room temperature. Subsequently, centrifugation was performed at 700 × g with the slowest acceleration and deceleration for 20 min at 20 °C. The resulting PBMCs ring was aspirated and centrifuged at 450 × g for 10 min at 20 °C with normal acceleration and deceleration. The cells were washed twice with RPMI 1640 medium with GlutaMAX (Gibco by Thermo Fisher Scientific, Waltham, MA, USA). After the second wash and centrifugation, the cells were diluted with cultivation medium RPMI 1640 with GlutaMAX supplemented with 20% inactivated fetal bovine serum (both Gibco by Thermo Fisher Scientific, Waltham, MA, USA) and 1% antibiotic solution of penicillin, 10 000 IU ml^−1 and streptomycin, 10 mg ml^−1 (Sigma-Aldrich, St. Louis, MO, USA). At the end, the cells were counted using Türk's solution.
(§5) PBMCs were plated into 96-well plates at a cell density of approximately 5 × 10^4 cells per well in a volume of 100 μl. Cells were treated with tested compounds in concentrations of 10, 20, 50, 100, 200, 500, and 1000 μM to determine the optimal non-toxic concentration for each. Cells were incubated for 48 h in a humidified atmosphere with 5% CO2 at 37 °C. 20 μl of MTS – CellTiter 96® AQueous One Solution Cell Proliferation Assay (Promega, Madison, WI, USA) was added to each well 4 h before spectrometric analysis. Cell viability was then determined by measuring absorbance at 490 nm using the Synergy H1 instrument by BioTek. The absorbance of the cell-free culture medium was used as a blank and subtracted from the absorbance readings obtained during the experiment. The viability of untreated control cells was set as 100%.

PBMCs = test: in vitro; conditions: 48 h; for Optimal non-toxic concentration (PBMC viability not below 100% at 0.05 significance level and higher than 90%): male, human
Procedure: as §3, §4, §5

[4] = WST-1 proliferation assay, PANC-1; format: cell-based; conditions: human, PANC-1 cells (pancreas epithelioid carcinoma), vs 0.1% DMSO control = 100%, mean ± standard deviation
Procedure: as §1, §2

[5] = MOLT-4, light or radiation study, annexin V/PI negative cells, read-out: Viability rate of MOLT-4 cells relative to 2 Gy irradiation alone (100%)
[6] = MOLT-4, representative histogram Fig. 5A (2 Gy alone 26 %), read-out: Viable (annexin V/PI negative) MOLT-4 cells, compound + 2 Gy
[7] = MOLT-4, annexin V/PI negative cells, read-out: Viable MOLT-4 cells relative to 2 Gy radiation alone (100%)
[8] = MOLT-4, representative histogram Fig. 6A (2 Gy alone 27 %), read-out: Viable (annexin V/PI negative) MOLT-4 cells, compound + 2 Gy

Compound | viability at 48 h, 100 µM [1] [%] | viability at 48 h, 100 µM [2] [%] | viability at 100 µM (MOLT-4 cells; [5]) [%] | viability at 100 µM (MOLT-4 cells; [6]) [%] | viability at 200 µM (MOLT-4 cells; [7]) [%] | viability at 200 µM (MOLT-4 cells; [8]) [%] | viability at 48 h, 100 µM [3] [%] | viability at 48 h, 10 µM (in vitro) [%] | viability at 48 h, 20 µM (in vitro) [%] | viability at 48 h, 50 µM (in vitro) [%] | viability at 48 h, 100 µM (in vitro) [%] | viability at 48 h, 200 µM (in vitro) [%] | viability at 48 h, 500 µM (in vitro) [%] | viability at 48 h, 1000 µM (in vitro) [%] | viability at 48 h, 2000 µM (in vitro) [%] | viability at 48 h, 5000 µM (in vitro) [%] | Optimal non-toxic concentration (PBMC viability not below 100% at 0.05 significance level and higher than 90%) (PBMCs) [µM] | viability at 48 h, 100 µM [4] [%] | Radioprotective effect in MOLT-4 cells (in words) (MOLT-4 cells; 100 μM and 200 μM) | Decrease in cell viability of PBMCs (PBMCs; 10 μM (lowest tested concentration)) [%]
OCCN1CCN(CC(O)COc2ccc(F)cc2)CC1 (stereo not shown) [Compound 4, 1-(4-(2-Hydroxyethyl)piperazin-1-yl)-3-(4-fluorophenoxy)propan-2-ol] | 100 ± 3 | 102 ± 5 | 143 | 35 | 145 | 37 | 112 ± 14 | 104 ± 18 | 103 ± 26 | 112 ± 30 | 107 ± 30 | 110 ± 33 | 110 ± 28 | 105 ± 10 | 53 ± 5 | 39 ± 5 | 1000 | 97 ± 1 | – | –
OCCN1CCN(CC(O)COc2cccc(Cl)c2)CC1 (stereo not shown) [Compound 6, 1-(4-(2-Hydroxyethyl)piperazin-1-yl)-3-(3-chlorophenoxy)propan-2-ol] | 89 ± 5 | 86 ± 12 | 135 | 37 | 137 | 39 | 99 ± 11 | 94 ± 12 | 96 ± 5 | 99 ± 4 | 99 ± 7 | 96 ± 6 | 94 ± 7 | 51 ± 4 | – | – | 500 | 94 ± 3 | – | –
O=[N+]([O-])c1cc(OCC(O)CN2CCN(CCO)CC2)ccc1Cl (stereo not shown) [Compound 5, 1-(4-(2-Hydroxyethyl)piperazin-1-yl)-3-(4-chloro-3-nitrophenoxy)propan-2-ol] | 85 ± 3 | 104 ± 11 | – | 32 | – | 30 | 109 ± 9 | 121 ± 25 | 99 ± 8 | 111 ± 7 | 102 ± 9 | 107 ± 5 | 79 ± 3 | 44 ± 11 | – | – | 200 | 100 ± 3 | – | –
COc1cc([N+](=O)[O-])ccc1OCC(O)CN1CCN(CCO)CC1 (stereo not shown) [Compound 1, 1-(4-(2-Hydroxyethyl)piperazin-1-yl)-3-(2-methoxy-4-nitrophenoxy)propan-2-ol] | 91 ± 2 | 100 ± 9 | – | 35 | – | 36 | 112 ± 8 | 114 ± 14 | 110 ± 11 | 111 ± 15 | 101 ± 17 | 102 ± 21 | 97 ± 22 | 60 ± 10 | – | – | 500 | 108 ± 3 | – | –
NCCCNCCS [WR1065, reference compound] | 1 | 2 | – | 19 | – | 9 | 3 | 57 ± 39 | 47 ± 34 | 19 ± 17 | 16 ± 14 | 21 ± 8 | 27 ± 9 | – | – | – | – | 3 ± 1 | did not exhibit distinct radioprotective effects | 43
